Source: patent publication US6645501B2, “Anti-pathogen system and methods of use thereof” (Washington University, priority 1997, dated 2003)
“Also recorded” adds a separate entry of the source.

How the values were obtained:
Type in all cases: cell-based
Jurkat T-cells = experiment: Transduction of FITC-labeled synthetic peptides into Jurkat T-cells (rate and intracellular concentration versus TAT); settings: for Intracellular Concentration / Rate Compared to TAT: FITC-labeled peptide, Jurkat T-cells; for Intracellular Concentration: at equilibrium, relative to the TAT peptide; for Rate Compared to TAT: sign relative to TAT
Experimental: The following artificial (i.e. synthetic) peptides were made by conventional peptide synthesis as described above. A goal of this experiment was to produce transduction domains that could transduce more effectively as judged by the intracellular concentration in transduced cells. The transduction domains were tested against a suitable control, which typically was the “natural” TAT or an Antp transduction domain. Briefly, a FITC group was synthetically attached to N-terminus of 100% of each peptide so that transduction rate and intracellular concentration of each peptide could be quantified at equilibrium. The TAT transduction domain is recognized to be alpha-helical. In each synthetic peptide sequence, an alpha-helix was modeled with varying amounts of Arg on one face. That is, a series of synthetic peptides was designed that contained varying amounts of Arg residues on one surface and substituted with Ala residues. Both Ala and Arg residues have the highest probability/energetics for maintaining an alpha-helical structure. See FIG. 7, which depicts each peptide as a helical wheel projection. The peptides are shown below in Table 2.
The synthetic peptides were transduced into Jurkat T-cells along lines described above in Example 4.

[1] = tested on: Jurkat T-cells infected by HIV (strain NLHX); experiment: Killing of HIV-infected Jurkat T-cells, trypan blue exclusion and microscopy
Experimental: About 5×10^6 Jurkat T-cells were infected by HIV (strain NLHX; about 1×10^5 to 1×10^6 infectious virus per ml). The cells were propagated in RPMI media. Approximately 4 to 7 days after the infection, the media was removed from the plates and about 35 to 45 nanomoler of the TAT-CPP32 fusion protein was added to the cells. The cells were incubated with the fusion proteins for about 30 minutes to allow transduction into the cells. […] Subsequently, media was added back to the plates and after about 18 hours post-transduction, the cells were examined for cell killing using conventional trypan blue exclusion and microscopy.
Briefly, cells were infected and transduced as described in Example 6 above. Following the transduction, about 1 μg/ml Ritonavir was added to the cell media and allowed to incubate with the cells for about 18 hours. The cells were then assayed for cell killing by conventional trypan blue exclusion and microscopy. […]

Jurkat T cells [2] = experiment: Co-transduction of uninfected Jurkat T cells with TAT-CPP32 and TAT-Protease, survival by trypan-blue exclusionary dye microscopy
Experimental: To test for activation of the TAT-CPP32 by TAT-Protease, 2×10^6 Jurkat T cells were placed in 2 ml of culture (RPMI media). To these cells, various combinations of control and experimental transducible proteins were added in 50-100 nM ranges, as follows:
The cells were assayed for survival at 18 hr post-addition by trypan-blue exclusionary dye microscopy. […] Thus, activation of TAT-CPP32 requires the presence of HIV protease.

[3] = tested on: Jurkat T cells infected with the NLHX strain of HIV-I; experiment: Cytotoxicity of TAT-Casp3 on HIV infected Jurkat cultures, exclusionary dye viability analysis; settings: 1 μg/ml Ritonavir prior to 100 nM TAT-Casp3WT
Text: To make this determination, Jurkat T cells were infected for 7-14 days with the NLHX strain of HIV-I and examined microscopically for HIV cytopathic effects. See Westervelt, P., et al., Identification of a determinant within the HIV-1 surface envelope glycoprotein critical for productive infection of cultured primary monocytes. Proc. Natl. Acad. Sci USA 88: 3097 (1991). At the start of each transduction experiment approximately 50% of the culture was HIV positive. HIV infected cultures were transduced for 16 hr with 100 nM TAT-Casp3WT or TATCasp3MUT protein and then assayed for cell viability (FIG. 13). […] In addition, we detected both the appearance of cells containing <2N DNA content and cells with condensed nuclei in TAT-Casp3 treated cells.
To determine if TAT-Casp3WT induced apoptosis was dependent on active HIV Protease in the infected cultures, HIV infected cultures were pretreated with 1 μg/ml Ritonavir prior to transduction with 100 nM TAT-Casp3WT protein (FIG. 5). […] In addition, the observed increased survival of Ritonavir treated cells is consistent with increased longevity of protease inhibitor treated HIV infected cells. See Coffin, J. M., et al. (supra).
The specific killing of HIV infected cells shown in FIG. 5 is explained in more detail as follows. Jurkat T cells were infected for 7-14 days with HIV strain NLHX, then transduced with TAT-Casp3WT (WT) or TAT-Casp3MUT (MUT) proteins for 16 hr and assayed for cell viability. […] Ctrl, control addition of PBS to cultures; abscissa, % viability of HIV positive cells in the population at start of transduction; error bars represent SD.
(§1) 1. […] See Lissy, N. A., et al. (supra). […] See Ezhevsky, S. A., et al. (supra). […] See Xiang, J., et al., (supra). […] See Xiang, J., et al., (supra). […] See Ezhevsky, S. A., et al. (supra).

HIV Protease = target: T1, HIV Protease (Human immunodeficiency virus type 1 group M subtype B, UniProt P04585); experiment: In vivo substrate cleavage by co-transduced TAT-HIV Pr in Jurkat T cells, immunoblot
T1 construct: PCR cloning the HIV Protease gene from HXB2R HIV strain; 6xHis (from the pTAT vector) (N); made in house; the purified protein was added to Jurkat T cells
Experimental: To assay for in vivo cleavage, p 16(−) Jurkat T cells were transduced with 100 nM TAT-Ap16 or control TAT-p16 protein (no HIV cleavage site) alone or in combination with 50 nM TATHIV Pr fusion protein for 5 hr and analyzed by anti-p16 immunoblot for in vivo cleavage at the HIV A proteolytic cleavage site (FIG. 10A). […] Size analysis of the cleaved TAT-A-p 16 protein was consistent with retention of the residual HIV half site present on the N′ terminus of p 16 (FIG. 10A, see lane 4 vs. 5).
Further, the TAT-Casp3MUT protein was transduced in combination with TAT-HIV Pr protein into cells (FIG. 10B).
The in vivo processing in co-transduced cells shown in FIGS. 10A and 10B is explained in more detail as follows. FIG. 10A. Cultures of p16(−) Jurkat T cells were transduced with TAT-p 16 or TAT-A-p 16 substrate proteins in combination with TATHIV Pr proteins for 5 hr and subjected to anti-p 16 immunoblot analysis. […] WCE, HepG2 whole cell lysate containing wild type endogenous p16; A-p16, cleaved TAT-A-16 product retaining the HIV half site on p16. FIG. 10B. Cultures of Jurkat T cells were transduced with TATCasp3MUT protein (TAT-“D” site-p 17 domain-“A” site-p12 domain) alone or in combination with TAT-HIV Pr (Pr) protein as indicated and immunoblotted with anti-Caspase-3 antibodies specific for the p17 domain. TAT-D-p17-A, cleaved product of TAT-Casp3 containing the N′ terminal HIV A half site.
as §1

Jurkat T cells [4] = experiment: FACS and confocal analysis of FITC-labeled TAT fusion proteins added to Jurkat T cells; settings: FITC-labeled protein added to media of Jurkat T cells
Experimental: To test the ability of TAT-Casp3 proteins to transduce into cells, TAT-Casp3 proteins were conjugated to fluorescein (FITC), then added directly to the media of Jurkat T cells and analyzed by Flow Cytometry (FACS) (FIGS. 9B-C). Both TAT-Casp3WT and TAT-Casp3MUT proteins rancidly transduced into ˜100% of cells, achieving maximum intracellular concentration in less than 20 min. In addition, based on the narrow peak width before and after addition of FITC labeled proteins, individual cells within the population contain near identical intracellular concentrations of TAT-Casp3-FITC protein. […] Thus, TAT-Casp3 proteins readily transduce into 100% of all cells inca rapid and concentration-dependent fashion.
The generation and transduction of TAT fusion proteins shown in FIGS. 9A-E are explained in more detail as follows: FIG. 9A. Diagram depicting HIV cleavage site sequences and domains of TAT fusion proteins. FIGS. 9B-D. FACS kinetic analysis of fluorescein (FITC) labeled TAT-Casp3WT, TAT-Casp3MUT and TAT-HIV Pr proteins added to cells at 0, 20 and 30 min. FIG. 9E. FACS dose analysis of 3, 6, and 12 nM TAT-Casp3WT-FITC protein added to cells at I hr post-addition. Note rapid, concentration-dependent transduction of all FITC labeled protein into ˜100% of cells and near identical intracellular concentration within the population as measured by FACS peak width of control vs. transduced cells.
as §1

[5] = 50-100 nM, uninfected Jurkat T cells, 18 hr post-addition

Molecule: 10 (CTERQANFLGKIWP; human) [compound 10]
- Intracellular Concentration (Jurkat T-cells): 1 X
- Rate Compared to TAT (Jurkat T-cells): <

Molecule: 6 (YARAARRAARA; human) [compound 6]
- Intracellular Concentration (Jurkat T-cells): 5 X
- Rate Compared to TAT (Jurkat T-cells): =

Molecule: RQIKIWFQNRRMKWKK [SEQ ID NO. 10, reference compound]
- transduction rate relative to the TAT peptide (in words) (Jurkat T-cells): slower transduction rate

Molecule: 3 (YARKARRQARR; human) [compound 3]
- Intracellular Concentration (Jurkat T-cells): 10 X
- Rate Compared to TAT (Jurkat T-cells): =

Molecule: 2 (YGRKKRRQRRR; human) [compound 2]
- Intracellular Concentration (Jurkat T-cells): 1 X
- Rate Compared to TAT (Jurkat T-cells): =

Molecule: 1 (AKIWFQNRRMKWKKEN; human) [compound 1]
- Intracellular Concentration (Jurkat T-cells): 1 X
- Rate Compared to TAT (Jurkat T-cells): =

Molecule: 7 (YARRRRRRRRR; human) [compound 7]
- Intracellular Concentration (Jurkat T-cells): 5 X
- Rate Compared to TAT (Jurkat T-cells): =

Molecule: 4 (YARAAARQARA; human) [compound 4]
- Intracellular Concentration (Jurkat T-cells): 5 X
- Rate Compared to TAT (Jurkat T-cells): =

Molecule: CC(C)c1nc(CN(C)C(=O)N[C@H](C(=O)N[C@@H](Cc2ccccc2)C[C@H](O)[C@H](Cc2ccccc2)NC(=O)OCc2cncs2)C(C)C)cs1 [Ritonavir, reference compound]
- effect on the ability of TAT-CPP32 to kill infected cells ([1]; about 1 μg/ml Ritonavir added after transduction, about 18 hours): essentially blocked
- effect of the protease inhibitor on TAT-CPP32 wild type killing (Jurkat T cells [2]; added to TAT-CPP32 wild type plus TAT-Protease experiment): loss of specific TAT-CPP32 wild type killing
- effect of pretreatment on TAT-Casp3WT killing of HIV infected cells [3]: protection from TAT-Casp3WT induced apoptosis; also recorded: protects infected cells

Molecule: 5 (YARAARRAARR; human) [compound 5]
- Intracellular Concentration (Jurkat T-cells): 10 X
- Rate Compared to TAT (Jurkat T-cells): =

Molecule: 8 (YAAARRRRRRR; human) [compound 8]
- Intracellular Concentration (Jurkat T-cells): 5 X
- Rate Compared to TAT (Jurkat T-cells): =

B1: TAT-Dp16: TAT-p16 fusion protein containing the HIV D (p7-p1) cleavage site (protein)
chain: GRKKRRQRRRGCTERQANFLGKIWPMEPAAGSSMEPSADWLATAAARGRVEEVRALLEAGALPNAPNSYGRRPIQVMMMGSARVAELLLLHGAEPNCADPATLTRPVHDAAREGFLDTLVVLHRAGARLDVRDAWGRLPVDLAEELGHRDVARYLRAAAGGTRGSNHARIDAAEGPSDIPD
modifications: left off: small tags and cut ends
notes: TAT-p16 fusion protein containing the HIV D (p7-p1) cleavage site
- preference between HIV A site and D site (HIV Protease; co-transduction with TAT-HIV Pr): HIV A site was preferentially cleaved over

B2: TAT-A-p16: HIV A (p17-p24) cleavage site inserted between the TAT and p16 domains (protein)
chain: GRKKRRQRRRGSQVSQNYPIVQNLQMEPAAGSSMEPSADWLATAAARGRVEEVRALLEAGALPNAPNSYGRRPIQVMMMGSARVAELLLLHGAEPNCADPATLTRPVHDAAREGFLDTLVVLHRAGARLDVRDAWGRLPVDLAEELGHRDVARYLRAAAGGTRGSNHARIDAAEGPSDIPD
modifications: left off: small tags and cut ends
notes: HIV A (p17-p24) cleavage site inserted between the TAT and p16 domains
- cells transduced (Jurkat T cells [4]): 100%
- cleavage at the HIV cleavage site when co-transduced with TAT-HIV Pr (HIV Protease; 100 nM substrate, 50 nM TAT-HIV Pr, Jurkat T cells, immunoblot): specific substrate cleavage

B3: TAT-CPP32 mutant (protein)
chain: GRKKRRQRRRGYPYDVPDYACTERQANFLGKIWPGISLDNSYKMDYPEMGLCIIINNKNFHKSTGMTSRSGTDVDAANLRETFRNLKYEVRNKNDLTREEIVELMRDVSKEDHSKRSSFVCVLLSHGEEGIIFGTNGPVDLKKITNFFRGDRCRSLTGKPKLFIIQAMRGTELDCGIETSQVSQNYPIVQNLQGVDDDMACHKIPVEADFLYAYSTAPGYYSWRNSKDGSWFIQSLCAMLKQYADKLEFMHILTRVNRKVATEFESFSFDATFHAKKQIPCIVSMLTKELYFYH
modifications: left off: small tags and cut ends
- killing of HIV-infected cells ([1]; about 35 to 45 nanomoler, about 18 hours post-transduction): not capable of killing
- cytotoxicity when added alone (Jurkat T cells [2]; [5]): minimal cytotoxicity
- loss of viable cells when added plus TAT-Protease (Jurkat T cells [2]; [5]): not
